# Columns and labels:
# Assay in all cases: relative viability (nuclei count vs DMSO), 5 days (fraction); higher = more cells survive
# [1] = compound: CCC1=CN=CN=C1N2CCN(CC2)CC3=NC4=C(N3)C=C(C=C4)C(F)(F)F + CC1(C)CCC(c2ccc(Cl)cc2)=C(CN2CCN(c3ccc(C(=O)NS(=O)(=O)c4ccc(N[C@H](CCN5CCOCC5)CSc5ccccc5)c(S(=O)(=O)C(F)(F)F)c4)cc3)CC2)C1 [Navitoclax] (partner 0.5 µM)
# Method in brief: (§1)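 Relative viability is defined as nuclei in treated wells over nuclei in vehicle wells. Duplicate plates were run and medians reported. Lung cancer cell lines in 1536-well plates were dosed by pin tool one day after seeding, with one drug or with a fixed anchor-drug dose plus five library-drug doses (not always all listed) in √10 steps, and nuclei were counted after 5 days.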
# [2] = compound: CCC1=CN=CN=C1N2CCN(CC2)CC3=NC4=C(N3)C=C(C=C4)C(F)(F)F + O=C(CCCCCCC(=O)Nc1ccccc1)NO [Vorinostat] (partner 1 µM)
# Method in brief: as §1
# [3] = compound: CCn1c(-c2nonc2N)nc2cnc(Oc3cccc(NC(=O)c4ccc(OCCN5CCOCC5)cc4)c3)cc21 + O=C(CCCCCCC(=O)Nc1ccccc1)NO [Vorinostat] (partner 1 µM)
# Method in brief: as §1
Cell Line,relative viability ([1]; first compound 0.04 µM),relative viability ([1]; first compound 0.1265 µM),relative viability ([1]; first compound 0.4 µM),relative viability ([1]; first compound 1.265 µM),relative viability ([1]; first compound 4 µM),relative viability ([2]; first compound 0.04 µM),relative viability ([2]; first compound 0.1265 µM),relative viability ([2]; first compound 0.4 µM),relative viability ([2]; first compound 1.265 µM),relative viability ([2]; first compound 4 µM),relative viability ([3]; first compound 0.04 µM),relative viability ([3]; first compound 0.1265 µM),relative viability ([3]; first compound 0.4 µM),relative viability ([3]; first compound 1.265 µM),relative viability ([3]; first compound 4 µM)
201T,1.23,1.19,1.16,1.17,1.23,0.923,0.889,0.819,0.817,1.06,1.07,0.882,0.717,0.876,0.896
A549,1.14,1.13,1.12,1.16,0.945,–,–,–,–,–,–,–,–,–,–
A-427,0.873,0.9,0.915,0.872,0.826,0.776,0.836,0.794,0.721,0.809,0.812,0.733,0.587,0.243,0.284
ABC-1,–,–,–,–,–,–,–,0.989,0.84,1.03,1.25,0.8,0.822,0.32,0.665
BEN,0.0475,0.075,0.0493,0.0611,0.0644,0.556,0.566,0.565,0.457,0.464,0.566,0.544,0.371,0.349,0.402
CAL-12T,1.26,1.28,1.21,1.23,1.17,0.664,0.8,0.623,0.782,0.568,1.44,0.862,0.731,0.553,0.288
COR-L23,1.02,0.853,1.02,0.959,0.968,0.464,0.523,0.404,0.44,0.462,0.508,0.309,0.225,0.13,0.113
COR-L 105,0.714,0.717,0.695,0.868,0.651,0.811,0.879,0.802,0.601,1.05,0.941,0.785,0.762,0.419,0.412
Calu-6,0.818,0.779,0.721,0.713,0.717,–,–,–,–,–,–,–,–,–,–
ChaGo-K-1,–,1,0.927,0.936,0.942,0.792,0.75,0.712,0.648,0.824,1,0.684,0.514,0.536,0.55
EBC-1,0.422,0.49,0.396,0.415,0.434,–,–,–,–,–,–,–,–,–,–
EKVX,0.96,0.96,0.886,0.724,0.977,0.767,0.678,0.739,0.575,0.659,0.786,0.365,0.757,0.513,0.647
EMC-BAC-2,1.15,1.14,1.14,1.14,1.2,–,0.415,0.422,0.386,0.484,0.438,0.297,0.159,0.147,0.167
EPLC-272H,0.973,1.05,1.11,1.07,1.31,0.311,0.598,0.373,0.392,0.351,0.467,0.545,0.425,0.357,0.348
H3255,0.489,0.469,0.507,0.49,0.529,0.946,0.576,0.929,0.762,0.754,0.92,0.743,0.686,0.618,0.568
HARA,1.18,1.13,1.15,1.11,1.19,0.542,0.492,0.57,0.556,0.466,0.524,0.551,0.538,0.577,0.645
HCC-15,0.702,0.67,0.757,0.694,0.71,0.864,0.831,0.789,0.76,0.82,0.938,0.785,0.81,0.767,0.718
HCC-44,1.01,1.06,0.895,0.823,0.919,1.01,1.06,1.09,1.17,1.02,1.13,1.18,1.14,1.07,1.09
HCC-78,0.654,0.832,0.831,0.476,0.525,0.528,0.405,0.47,0.4,0.409,0.43,0.42,–,0.505,0.638
HCC-366,1.07,1.04,1,–,1.05,0.365,0.3,0.296,0.332,0.417,0.396,0.3,0.137,0.0204,0.0377
HCC-827,1.08,1.03,1.03,0.903,0.937,0.895,0.856,0.788,0.781,0.744,0.92,0.881,0.806,0.525,0.701
HOP-62,1.06,1.07,1.04,0.898,0.927,0.604,0.56,0.462,0.429,0.606,0.936,0.769,0.521,0.382,0.394
IA-LM,0.733,0.806,0.646,0.654,0.695,–,0.979,0.937,0.932,0.962,1.08,0.997,1.03,0.998,1.39
LC-2-ad,0.459,0.603,0.522,0.324,0.351,0.737,0.652,0.636,0.687,0.682,0.728,0.618,0.258,0.29,0.277
LCLC-97TM1,0.411,0.384,0.396,0.489,0.396,0.607,0.685,0.642,0.711,0.751,1.12,0.856,–,0.705,0.662
LCLC-103H,–,–,–,–,–,0.797,0.685,0.746,0.668,0.717,0.921,0.8,0.55,0.537,0.512

Cell Line,relative viability ([1]; first compound 0.04 µM),relative viability ([1]; first compound 0.1265 µM),relative viability ([1]; first compound 0.4 µM),relative viability ([1]; first compound 1.265 µM),relative viability ([1]; first compound 4 µM),relative viability ([2]; first compound 0.04 µM),relative viability ([2]; first compound 0.1265 µM),relative viability ([2]; first compound 0.4 µM),relative viability ([2]; first compound 1.265 µM),relative viability ([2]; first compound 4 µM),relative viability ([3]; first compound 0.04 µM),relative viability ([3]; first compound 0.1265 µM),relative viability ([3]; first compound 0.4 µM),relative viability ([3]; first compound 1.265 µM),relative viability ([3]; first compound 4 µM)
LK-2,0.773,0.801,0.714,0.688,0.761,0.245,0.235,0.356,0.223,0.244,0.522,0.37,0.168,0.178,0.156
LOU-NH91,0.626,0.692,0.708,0.583,0.752,0.842,0.907,0.927,0.76,0.993,1.06,0.824,0.661,0.529,0.548
LU99A,0.846,0.825,0.864,0.709,0.657,0.608,0.486,0.528,0.466,0.652,0.583,0.376,0.3,0.427,0.384
LXF-289,1.08,0.912,0.948,0.885,0.896,0.933,0.735,0.718,0.742,0.789,0.862,0.886,0.79,0.777,0.604
NCI-H23,0.845,0.903,0.783,0.749,1.04,0.567,0.65,0.453,0.606,0.808,0.735,0.526,0.3,0.531,0.55
NCI-H322M,1.26,1.1,1.13,1.29,1.2,1.12,0.855,0.859,0.621,0.912,1.26,1.31,0.856,0.554,0.675
NCI-H358,–,–,–,–,–,0.695,0.622,0.661,0.586,0.686,0.814,0.736,0.715,0.715,0.511
NCI-H441,0.448,0.523,0.57,0.573,0.677,0.777,0.8,0.659,0.651,0.868,1.04,0.705,0.87,0.502,0.47
NCI-H460,1.25,1.01,1.01,1.09,1.11,0.819,0.69,0.708,0.684,0.672,0.952,0.729,0.471,0.189,0.107
NCI-H520,1.16,1.01,0.969,0.96,1.03,0.854,0.684,0.663,0.576,0.591,0.957,0.856,0.774,0.478,0.297
NCI-H522,–,–,–,–,–,0.951,1.02,0.75,0.771,0.973,1.19,0.697,0.783,0.742,0.539
NCI-H596,1.01,0.899,0.933,0.944,1,0.534,0.56,0.618,0.562,0.623,0.598,0.531,0.617,0.468,0.604
NCI-H647,1.21,0.968,–,–,1.04,0.453,0.591,0.414,0.364,0.543,0.894,0.638,0.57,0.378,0.276
NCI-H650,–,–,–,–,–,0.414,0.455,0.448,0.363,0.477,0.503,0.28,0.24,0.192,0.224
NCI-H661,–,–,–,–,–,0.78,0.794,0.757,0.704,0.663,0.891,0.906,0.888,0.627,0.517
NCI-H727,0.487,0.501,0.357,–,0.35,1.22,1.08,1.09,1.03,1.35,–,1.23,1.05,0.961,1.36
NCI-H838,1.23,1.12,1.11,1.14,1.07,0.785,0.695,0.821,0.66,0.662,0.459,0.372,0.337,0.329,0.205
NCI-H1299,1.09,1.03,1.03,1.05,1.04,–,–,–,–,–,–,–,–,–,–
NCI-H1355,0.987,0.919,0.903,0.806,0.973,0.643,0.575,0.584,0.585,0.644,0.653,0.668,0.413,0.377,0.313
NCI-H1395,1.16,1.14,1.11,0.949,1.12,0.575,0.574,0.7,–,0.748,0.753,0.604,0.658,0.441,0.44
NCI-H1648,–,–,–,–,–,0.684,–,–,0.362,0.403,0.922,0.472,0.42,1.46,1
NCI-H1703,0.901,1.13,1.1,0.85,1.08,–,–,–,–,–,–,–,–,–,–
NCI-H1792,0.323,0.572,0.605,0.697,0.554,–,–,–,–,–,–,–,–,–,–
NCI-H2342,–,–,–,–,–,0.629,0.736,0.744,0.531,0.565,0.834,0.746,0.752,0.468,0.743
SW 900,–,–,–,–,–,0.454,0.45,0.403,–,0.422,0.651,0.602,0.76,0.61,0.621
